Laboratory results reported in patent US11945822B2, “Pyrazolo-triazine and/or pyrazolo-pxrimidine derivatives as selective inhibitor of cyclin dependent kinase” (QURIENT CO., LTD., priority 2018, dated 2024).
Read-outs that look alike come from different tables or passages of the source.

Assays:
[1] = target: T1, CDK1/Cyclin B (Homo sapiens, UniProt P06493); assay: Enzymatic assay for CDK1 (FRET based LANCE Ultra kinase assay); type: biochemical
T1 construct: purchased Invitrogen PR4768C
How it was run: (§1)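 LANCE Ultra TR-FRET: ULight-MBP peptide (68 nM) with ATP at Km, […], 60 min at 23° C. EDTA plus Eu-anti-phospho-MBP added, another 60 min, then 665/615 nm emission read. Compounds tested as 8-dose 4-fold DMSO dilutions.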

[2] = target: T2, CDK2/Cyclin A (Homo sapiens, UniProt P24941); assay: Enzymatic assay for CDK2 (FRET based LANCE Ultra kinase assay); type: biochemical
T2 construct: purchased Invitrogen PV6290
How it was run: as §1

[3] = target: T3, CDK5/p25 (Homo sapiens, UniProt Q00535); assay: Enzymatic assay for CDK5 (FRET based LANCE Ultra kinase assay); type: biochemical
T3 construct: purchased Invitrogen PR8543B
How it was run: as §1

[4] = target: T4, CDK7/Cyclin H/MNAT1 (Homo sapiens, UniProt P50613); assay: Enzymatic assay for CDK7 (FRET based LANCE Ultra kinase assay); type: biochemical
T4 construct: purchased Invitrogen PR6749B
How it was run: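 Inhibition was measured at Km ATP by time-resolved FRET between a Eu anti-phospho antibody and a phosphorylated ULight peptide. The enzyme was the purified CDK7/cyclin complex, and data were curve-fitted.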

[5] = test system: H460; assay: Cellular H460 viability assay (CellTiter-Glo, 72 hours); type: cell-based; details: Homo sapiens, NCI-H460
How it was run: (§2)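 Mycoplasma-tested cells, seeded at densities chosen for each line, received compound or DMSO vehicle (under 0.1% final) for 72 hours. Duplicate cultures were then read for viability by CellTiter-Glo luminescence.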

[6] = test system: MV4-11; assay: Cellular MV4-11 viability assay (CellTiter-Glo, 72 hours); type: cell-based; details: Homo sapiens
How it was run: as §2

[7] = test system: RPMI-8226; assay: Cellular RPMI-8226 viability assay (CellTiter-Glo, 72 hours); type: cell-based; details: Homo sapiens
How it was run: as §2

[8] = test system: A2780; assay: Cellular A2780 viability assay (CellTiter-Glo, 72 hours); type: cell-based; details: Homo sapiens
Text: Human T-cell acute lymphoblastic leukemia cell line, MOLT-4 (ATCC, Cat #CRL-1582), Human multiple myeloma cell line, RPMI-8226 (Invitrogen, Cat #22400-089) and MM.1S (ATCC, Cat #CRL-2974), NSCLC (Non-small cell lung cancer) cell line H460 (ATCC, Cat #HTB-177), Human colon colorectal carcinoma cell line HCT116 (ATCC, Cat #CCL-247), Human acute monocytic leukemia cell line MV4-11 (ATCC, Cat #CRL-9591), OVCAR-3 (ATCC, Cat #HTB-161) and A2780 (ECACC, Cat #93112519) were obtained from ATCC. Cells were grown in RPMI-1640 media (Invitrogen, Cat #22400-089) supplemented with 10% FBS (Invitrogen, Cat #10099141) and 1% penicillin/streptomycin (Invitrogen, Cat #15070063) and cultured at 37° C., 5% CO2 in a humidified chamber. All cell lines were routinely tested for mycoplasma.
The effect of the CDK7 inhibitor to inhibit the growth of target cancer cells was evaluated through the 72 hours time period of viability assay. Briefly, the candidate cell line ware plated in 96 well plate at the following density of cells respectively. 1×10^4 cells/well for MOLT-4, RPMI-8226, MV4-11 and MM.1S, 5×10^3 for H460, HCT116 and OVCAR-3 and IX 10^3 for A2780. After 24 hours, the cells were treated with various concentrations of the compound (ranging from 0.0015 uM to 10 uM). DMSO solvent without compound served as a control and final DMSO concentration less than 0.1%. After 72 hours of incubation at 37° C., 5% CO2 incubator, cells were analyzed for the viability using the CellTiter-Glo Luminescent Cell Viability Assay (Promega, Cat #G7570). All viability assays were performed in duplicate and Luminescence was read using an Envision (Perkin Elmer, USA). Data was analyzed using XLfit software.

[9] = test system: HCT116; assay: Cellular HCT116 viability assay (CellTiter-Glo, 72 hours); type: cell-based; details: Homo sapiens, HCT-116
How it was run: as §2

[10] = test system: MOLT-4; assay: Cellular MOLT-4 viability assay (CellTiter-Glo, 72 hours); type: cell-based; details: Homo sapiens, MOLT4 viability assay
How it was run: as §2

[11] = read-out: CDK1 enzymatic activity (IC50 range)
[12] = read-out: CDK2 enzymatic activity (IC50 range)
[13] = read-out: CDK5 enzymatic activity (IC50 range)
[14] = read-out: CDK7 enzymatic activity (IC50 range)

T3 sequence (Q00535 whole entry): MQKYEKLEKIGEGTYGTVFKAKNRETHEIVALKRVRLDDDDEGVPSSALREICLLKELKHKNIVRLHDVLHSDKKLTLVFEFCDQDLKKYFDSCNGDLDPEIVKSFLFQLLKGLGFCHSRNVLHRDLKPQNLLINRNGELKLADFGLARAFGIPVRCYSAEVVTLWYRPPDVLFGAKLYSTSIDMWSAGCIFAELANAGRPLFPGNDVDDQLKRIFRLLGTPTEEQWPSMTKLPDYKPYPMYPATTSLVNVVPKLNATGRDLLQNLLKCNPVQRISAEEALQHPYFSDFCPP
T3 sequence (Q15078 99-307 partner limits assumed): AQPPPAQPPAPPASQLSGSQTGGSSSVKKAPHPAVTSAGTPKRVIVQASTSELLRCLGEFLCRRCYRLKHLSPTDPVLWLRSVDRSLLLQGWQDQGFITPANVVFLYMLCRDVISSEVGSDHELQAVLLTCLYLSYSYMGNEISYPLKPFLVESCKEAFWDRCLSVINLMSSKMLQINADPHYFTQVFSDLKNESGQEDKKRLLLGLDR
T4 sequence (P50613 whole entry): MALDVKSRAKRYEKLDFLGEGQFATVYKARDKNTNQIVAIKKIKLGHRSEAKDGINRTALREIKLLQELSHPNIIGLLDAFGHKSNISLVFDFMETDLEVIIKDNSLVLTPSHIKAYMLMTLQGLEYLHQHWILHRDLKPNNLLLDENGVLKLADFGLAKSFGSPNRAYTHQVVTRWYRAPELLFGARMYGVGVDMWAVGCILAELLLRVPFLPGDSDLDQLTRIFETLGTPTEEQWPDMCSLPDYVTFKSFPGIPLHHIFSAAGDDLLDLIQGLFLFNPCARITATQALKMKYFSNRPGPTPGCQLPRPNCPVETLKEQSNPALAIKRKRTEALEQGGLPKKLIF
T4 sequence (P51946 whole entry partner): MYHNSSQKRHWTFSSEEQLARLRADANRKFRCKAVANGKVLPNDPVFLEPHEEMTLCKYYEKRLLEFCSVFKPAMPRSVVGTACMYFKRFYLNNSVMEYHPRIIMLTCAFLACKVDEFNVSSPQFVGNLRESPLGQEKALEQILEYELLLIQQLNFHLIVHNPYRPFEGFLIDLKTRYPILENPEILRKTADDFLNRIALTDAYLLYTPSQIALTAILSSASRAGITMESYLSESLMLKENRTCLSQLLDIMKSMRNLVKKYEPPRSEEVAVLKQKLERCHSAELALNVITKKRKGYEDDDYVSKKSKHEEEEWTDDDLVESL
T4 sequence (P51948 whole entry partner): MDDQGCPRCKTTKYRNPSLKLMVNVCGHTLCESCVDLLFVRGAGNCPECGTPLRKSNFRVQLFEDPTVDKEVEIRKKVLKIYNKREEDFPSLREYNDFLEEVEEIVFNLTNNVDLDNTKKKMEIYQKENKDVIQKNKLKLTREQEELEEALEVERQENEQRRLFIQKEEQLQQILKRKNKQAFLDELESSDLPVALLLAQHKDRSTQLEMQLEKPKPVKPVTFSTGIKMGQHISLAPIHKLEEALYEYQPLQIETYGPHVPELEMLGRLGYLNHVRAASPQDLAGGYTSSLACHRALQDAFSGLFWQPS
T1 sequence (P06493 whole entry): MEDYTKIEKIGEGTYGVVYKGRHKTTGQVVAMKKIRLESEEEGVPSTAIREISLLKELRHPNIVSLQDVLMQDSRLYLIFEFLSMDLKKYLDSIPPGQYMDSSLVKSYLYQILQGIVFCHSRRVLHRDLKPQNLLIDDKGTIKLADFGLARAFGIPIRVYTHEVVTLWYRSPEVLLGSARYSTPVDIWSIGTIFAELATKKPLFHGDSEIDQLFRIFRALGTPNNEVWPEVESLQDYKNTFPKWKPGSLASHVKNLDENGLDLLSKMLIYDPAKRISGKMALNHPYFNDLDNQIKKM
T1 sequence (P14635 whole entry partner): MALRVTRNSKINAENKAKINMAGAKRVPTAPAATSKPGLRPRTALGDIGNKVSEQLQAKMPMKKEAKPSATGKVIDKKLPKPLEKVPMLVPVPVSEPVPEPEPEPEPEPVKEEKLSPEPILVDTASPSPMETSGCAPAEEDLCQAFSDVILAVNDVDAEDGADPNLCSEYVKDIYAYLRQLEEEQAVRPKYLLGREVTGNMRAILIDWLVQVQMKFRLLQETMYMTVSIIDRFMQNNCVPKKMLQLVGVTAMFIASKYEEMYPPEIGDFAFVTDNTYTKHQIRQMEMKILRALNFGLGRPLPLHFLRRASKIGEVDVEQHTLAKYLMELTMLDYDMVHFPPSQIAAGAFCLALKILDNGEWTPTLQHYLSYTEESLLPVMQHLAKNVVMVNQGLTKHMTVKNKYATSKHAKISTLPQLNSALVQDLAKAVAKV

For `CC(C)c1cnn2c(NCc3ccccc3-c3cc4ccccc4[nH]3)nc(NCC3CNCCO3)nc12` (racemic) [Compound 274], the IC50 ([1]; read-out: CDK1 enzymatic activity (IC50 activity range)) was over 1000 nM, the IC50 ([2]; read-out: CDK2 enzymatic activity (IC50 activity range)) was over 1000 nM and the IC50 ([3]; read-out: CDK5 enzymatic activity (IC50 activity range)) was 100 to 1000 nM. The “CDK1/CDK7: Selectivity of CDK7 inhibition over CDK1 inhibition” value ([4]; CDK1/CDK7) was “A (A=greater than 200 fold)”, the “CDK2/CDK7: Selectivity of CDK7 inhibition over CDK2 inhibition” value ([4]; CDK2/CDK7) was “B (B=less than 200 fold, but greater than 20 fold)” and the “CDK5/CDK7: Selectivity of CDK7 inhibition over CDK5 inhibition” value ([4]; CDK5/CDK7) was “B (B=less than 200 fold, but greater than 20 fold)”. For the same compound, the IC50 ([4]; read-out: CDK7 enzymatic activity (IC50 activity range)) was under 100 nM, the IC50 [5] was under 1000 nM and the IC50 [6] was under 1000 nM. It also gave an IC50 [7] of 1000 to 10000 nM and an IC50 [8] of at most 1000 nM.

For `CC(C)c1cnn2c(NCc3ccccc3-n3ccc(C(C)(C)O)n3)nc(NC[C@H]3CCNC[C@@H]3O)nc12` [Compound 233], the IC50 [1, 11] was over 1000 nM, the IC50 [2, 12] was 100 to 1000 nM and the IC50 [3, 13] was over 1000 nM. For the same compound, the “CDK1/CDK7: Selectivity of CDK7 inhibition over CDK1 inhibition” value ([4]; CDK7 over CDK1) was “A (A=greater than 200 fold)”, the “CDK2/CDK7: Selectivity of CDK7 inhibition over CDK2 inhibition” value ([4]; CDK7 over CDK2) was “B (B=less than 200 fold, but greater than 20 fold)” and the “CDK5/CDK7: Selectivity of CDK7 inhibition over CDK5 inhibition” value ([4]; CDK7 over CDK5) was “A (A=greater than 200 fold)”. The IC50 [4, 14] was under 100 nM, the IC50 [9] was under 1000 nM and the IC50 [5] was under 1000 nM. The IC50 [6] was under 1000 nM and the IC50 [8] was at most 1000 nM.

Compound `Cc1cccc(-n2ccc(C(C)(C)O)n2)c1CNc1nc(N2CCC(N)CC2)nc2c(C(C)C)cnn12` [Compound 230] has an IC50 [1, 11] of over 1000 nM, an IC50 [2, 12] of over 1000 nM and an IC50 [3, 13] of over 1000 nM. The “CDK1/CDK7: Selectivity of CDK7 inhibition over CDK1 inhibition” value ([4]; CDK7 over CDK1) was “A (A=greater than 200 fold)”, the “CDK2/CDK7: Selectivity of CDK7 inhibition over CDK2 inhibition” value ([4]; CDK7 over CDK2) was “A (A=greater than 200 fold)” and the “CDK5/CDK7: Selectivity of CDK7 inhibition over CDK5 inhibition” value ([4]; CDK7 over CDK5) was “A (A=greater than 200 fold)”. The IC50 [4, 14] was under 100 nM, the IC50 [9] was under 1000 nM and the IC50 [5] was under 1000 nM. The IC50 [6] was under 1000 nM and the IC50 [8] was at most 1000 nM.

`Cc1cccc(-c2cc(C(C)(C)O)nn2C)c1CNc1nc(N2CCC(N)CC2)nc2c(C(C)C)cnn12` [Compound 231] gave an IC50 [1, 11] of over 1000 nM, an IC50 [2, 12] of over 1000 nM and an IC50 [3, 13] of over 1000 nM. For the same compound, the “CDK1/CDK7: Selectivity of CDK7 inhibition over CDK1 inhibition” value ([4]; CDK7 over CDK1) was “A (A=greater than 200 fold)”, the “CDK2/CDK7: Selectivity of CDK7 inhibition over CDK2 inhibition” value ([4]; CDK7 over CDK2) was “A (A=greater than 200 fold)” and the “CDK5/CDK7: Selectivity of CDK7 inhibition over CDK5 inhibition” value ([4]; CDK7 over CDK5) was “A (A=greater than 200 fold)”. It also gave an IC50 [4, 14] of under 100 nM, an IC50 [9] of under 1000 nM and an IC50 [5] of under 1000 nM. It also gave an IC50 [6] of under 1000 nM and an IC50 [8] of at most 1000 nM.

Compound `CC(C)c1cnn2c(NCc3c(Cl)cccc3-n3ccc(C(C)(C)O)n3)nc(N3CCC(O)(CN)CC3)nc12` [Compound 238] has an IC50 [1, 11] of over 1000 nM, an IC50 [2, 12] of over 1000 nM and an IC50 [3, 13] of over 1000 nM. For the same compound, the “CDK1/CDK7: Selectivity of CDK7 inhibition over CDK1 inhibition” value ([4]; CDK7 over CDK1) was “A (A=greater than 200 fold)”, the “CDK2/CDK7: Selectivity of CDK7 inhibition over CDK2 inhibition” value ([4]; CDK7 over CDK2) was “A (A=greater than 200 fold)” and the “CDK5/CDK7: Selectivity of CDK7 inhibition over CDK5 inhibition” value ([4]; CDK7 over CDK5) was “A (A=greater than 200 fold)”. It also gave an IC50 [4, 14] of under 100 nM, an IC50 [9] of under 1000 nM and an IC50 [5] of under 1000 nM. The IC50 [6] was under 1000 nM and the IC50 [8] was at most 1000 nM.

In the case of `CC(C)c1cnn2c(NCc3ccccc3-n3cccn3)nc(N3CCNCC3)nc12` [Compound 2], the IC50 [1, 11] is reported as over 1000 nM, the IC50 [2, 12] is reported as 100 to 1000 nM and the IC50 [3, 13] is reported as 100 to 1000 nM. The “CDK1/CDK7: Selectivity of CDK7 inhibition over CDK1 inhibition” value ([4]; CDK7 over CDK1) was “A (A=greater than 200 fold)”, the “CDK2/CDK7: Selectivity of CDK7 inhibition over CDK2 inhibition” value ([4]; CDK7 over CDK2) was “B (B=less than 200 fold, but greater than 20 fold)” and the “CDK5/CDK7: Selectivity of CDK7 inhibition over CDK5 inhibition” value ([4]; CDK7 over CDK5) was “B (B=less than 200 fold, but greater than 20 fold)”. For the same compound, the IC50 [4, 14] was 100 to 1000 nM, the IC50 [5] was under 1000 nM and the IC50 [6] was under 1000 nM. For the same compound, the IC50 [10] was 1000 to 10000 nM and the IC50 [8] was at most 1000 nM.
